Data on seven compounds can be found in ChEMBL document CHEMBL1128930, “4-cyanothiazolidides as very potent, stable inhibitors of dipeptidyl peptidase IV” (Bioorg Med Chem Lett, 1996).

Data set [1] in a line: Half life period in aqueous solution. Type of data set: ADME. The settings on record: for half-life: aqueous solution.
Another data set addresses Dipeptidyl peptidase 4 (Homo sapiens, UniProt P27487). As to the kind of experiment: Inhibition of human Dipeptidyl peptidase IV.

pKi: −log10 of the molar value. A value given as a limit tells only on which side of the number the result lay.

As usually defined, the half-life is how long it takes for the measured level to halve. The low end stands for rapid decline, the high end for slow decline. One may read the pKi as the Ki on a negative log10 scale, so that one unit is a factor of ten.

Dipeptidyl peptidase 4, sequence (P27487 whole entry): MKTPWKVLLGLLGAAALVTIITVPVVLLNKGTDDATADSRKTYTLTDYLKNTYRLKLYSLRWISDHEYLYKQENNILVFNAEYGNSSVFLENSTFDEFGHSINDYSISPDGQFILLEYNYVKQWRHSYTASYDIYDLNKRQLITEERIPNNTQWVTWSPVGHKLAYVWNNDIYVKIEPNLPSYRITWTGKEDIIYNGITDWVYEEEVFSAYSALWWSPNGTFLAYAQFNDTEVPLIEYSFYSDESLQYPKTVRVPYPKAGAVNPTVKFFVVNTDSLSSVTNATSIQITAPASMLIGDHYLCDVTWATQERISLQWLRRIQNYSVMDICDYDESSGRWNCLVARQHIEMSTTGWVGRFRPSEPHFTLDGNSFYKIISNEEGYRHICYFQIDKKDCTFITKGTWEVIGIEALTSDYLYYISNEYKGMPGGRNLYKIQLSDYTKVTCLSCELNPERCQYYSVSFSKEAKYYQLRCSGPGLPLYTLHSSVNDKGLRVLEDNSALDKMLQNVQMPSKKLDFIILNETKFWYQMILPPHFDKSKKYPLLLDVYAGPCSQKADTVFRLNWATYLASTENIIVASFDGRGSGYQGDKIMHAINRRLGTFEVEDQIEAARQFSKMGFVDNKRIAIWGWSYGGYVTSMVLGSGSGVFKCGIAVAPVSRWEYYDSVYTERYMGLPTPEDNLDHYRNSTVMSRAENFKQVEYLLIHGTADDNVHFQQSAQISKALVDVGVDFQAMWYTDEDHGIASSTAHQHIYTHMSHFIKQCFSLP

As for `CCC(C)[C@H](N)C(=O)N1CSCCC1C#N` (stereo partly drawn), the half-life in data set [1] was greater than 48 h. Besides, the pKi on Dipeptidyl peptidase 4 is 5.22.
In data set [1], `CCC(C)[C@H](N)C(=O)N1COC[C@H]1C#N` (stereo partly drawn) registered a half-life greater than 48 h. In addition, the pKi on Dipeptidyl peptidase 4 is 6.35.
With `CCC(C)[C@H](N)C(=O)N1CCC[C@H]1C#N` (stereo partly drawn), in data set [1], the half-life was 48 h.
For `N#C[C@@H]1CSCN1C(=O)C(CCCCN)NC(=O)OCc1ccccc1` (stereo partly drawn), the half-life in data set [1] is greater than 48 h. In addition, the pKi at Dipeptidyl peptidase 4 is 8.30.
Compound `N#C[C@@H]1CSCN1C(=O)C(N)C1CCCC1` (stereo partly drawn) gave a half-life in data set [1] of 5 h. Besides, the negative logarithm of the Ki (pKi) on Dipeptidyl peptidase 4 was 9.30.
In the same order, the values of `CC[C@H](C)[C@H](N)C(=O)N1C[S+]([O-])C[C@H]1C#N` (stereo in doubt; 7) are 1.25 h and 7.47.
`CC[C@H](C)[C@H](N)C(=O)N1C[S+]([O-])C[C@H]1C#N` (stereo in doubt; 9) showed a T1/2 in data set [1] (buffer) of 1.5 h. On Dipeptidyl peptidase 4, the negative logarithm of the Ki (pKi) was 6.36.
